13 molecules from patent US20230192699A1, “COMPOUNDS AS CASEIN KINASE INHIBITORS” (GRITSCIENCE BIOPHARMACEUTICALS CO., LTD., priority 2020, published 2023) can be followed below.

Molecules are shown by their SMILES.

Data set [1] is described as follows: Assay of drug transport in Caco-2 cells. Conditions: human, Caco-2, pH 7.4. On the procedure: 1) 50 μL and 25 mL of cell culture medium were added to each well of the Transwell insert and reservoir, respectively. And then the HTS transwell plates were incubated at 37° C., 5% CO2 for 1 hour before cell seeding.
2) Caco-2 cells were diluted to 6. 86×10^5 cells/mL with culture medium and 50 μL of cell suspension were dispensed into the filter well of the 96-well HTS Transwell plate. Cells were cultivated for 14-18 days in a cell culture incubator at 37° C., 5% CO2, 95% relative humidity. Cell culture medium was replaced every other day, beginning no later than 24 hours after initial plating.
10 mM stock solutions of test compounds were prepared in DMSO. The stock solutions of positive controls were prepared in DMSO at the concentration of 10 mM. Digoxin and propranolol were used as control compounds in this assay.
1) Medium was removed from the reservoir and each Transwell insert and replaced with prewarmed fresh culture medium.
2) Transepithelial electrical resistance (TEER) across the monolayer was measured using Millicell Epithelial Volt-Ohm measuring system (Millipore, USA).
The TEER value was calculated according to the following equation: TEER measurement (ohms) * Area of membrane (cm^2)=TEER value (ohm·cm^2) TEER value should be greater than 230 ohm·cm^2, which indicates the well-qualified Caco-2 monolayer.
1) The Caco-2 plate was removed from the incubator and washed twice with pre-warmed HMS (10 mM HEPES, pH 7.4), and then incubated at 37° C. for 30 minutes.
2) The stock solutions of control compounds and test compounds were diluted in DMSO to get 1 mM solutions and then diluted with HMS (10 mM HEPES, pH 7.4) get 5 μM working solutions. The final concentration of DMSO in the incubation system was 0.5%.
3) To determine the rate of drug transport in the apical to basolateral direction. 125 μL of 5 μM working solution of control compound and test compounds were added to the Transwell insert (apical compartment), and transfer 50 μL sample (D0 sample) immediately from the apical compartment to a new 96-well plate. Fill the wells in the receiver plate (basolateral compartment) with 235 μL of MSS (10 mM HEPES, pH 7.4).
4) To determine the rate of drug transport in the basolateral to apical direction. 285 μL of 5 μM working solution of control compound and test compounds were to the receiver plate wells (basolateral compartment), and transfer 50 μL sample (D0 sample) immediately from the basolateral compartment to a new 96-well plate. Fill the wells in the Transwell insert (apical compartment) with 75 μL of MSS (10 mM HEPES, pH 7.4). The assay was performed in duplicate.
5) The plates were incubated at 37° C. for 2 hours.
6) At the end of the incubation, 50 μL samples from donor sides (apical compartment for Ap→Bl flux, and basolateral compartment for Bl→Ap) and receiver sides (basolateral compartment for Ap→Bl flux, and apical compartment for Bl→Ap) were transferred to wells of a new 96-well plate, followed by the addition of 4 volume of cold methanol containing appropriate internal standards (IS). Samples were Vortexed for 5 minutes and then centrifuged at 3,220 g for 40 minutes. An aliquot of 100 μL of the supernatant was mixed with an appropriate volume of ultra-pure water before LC-MS/MS analysis.
7) To determine the Lucifer Yellow leakage after 2-hour transport period, stock solution of Lucifer yellow was prepared in water and diluted with HMS (10 mM HEPES, pH 7.4) to reach the final concentration of 100 μM. 100 μL of the Lucifer yellow solution was added to each Transwell insert (apical compartment), followed by filling the wells in the receiver plate (basolateral compartment) with 300 μL of HBSS (10 mM HEPES, pH 7.4). The plates were Incubated at 37° C. for 30 mins. 80 μL samples were removed directly from the apical and basolateral wells (using the basolateral access holes) and transferred to wells of new 96 wells plates.
(In general: Caco-2 monolayers are a common model of the intestinal barrier.)

Data set [2] has as its target wild type CK1δ (Homo sapiens, UniProt P48730). As to the kind of experiment: CK1δ kinase assay (Kinase-Glo). In kind it is biochemical. Conditions: 10 μM ATP, 2 nM wild type CK1δ, 85 min at 25° C.; read-out: CK1δ inhibition (IC50). As for the experimental part: The CK1δ kinase assay was performed with a buffer (40 μL, pH 7.5) containing 50 mM Tris, 10 mM MgCl2, 1 mM dithiothreitol, 100 μg/mL BSA with 10 μM ATP, 2 nM wild type CK1δ, and 42 μM peptide substrate PLSRTLpSVASLPGL (Flotow et al., 1990) in the presence of 1 μL of a CK1δ inhibitor (e.g., a compound of the present application) or 4% DMSO (e.g., as control). The reaction mixture was incubated for 85 min at 25° C.; detection was carried out as described for the Kinase-Glo Assay (Promega). Luminescent output was measured on the Perkin Elmer Envision plate reader (PerkinElmer, Waltham, Mass.).

Data set [3] is described as follows: Assay of intrinsic clearance in liver microsomes (human). Type of data set: in vitro ADME. Conditions: Human liver microsomes 0.5 mg/mL, 2 μM compound, 37° C.; for microsomal CLint at 2 μM: read-out: in vitro CLint (μL/min/mg protein); for half-life at 2 μM: read-out: in vitro t1/2. As for the experimental part: (§1) 1. The master solution was prepared according to Table 11.
(§2) 2. Three separated experiments were performed as follows. a) With NADPH: 10 μL of 20 mg/mL liver microsomes and 40 μL of 10 mM NADPH were added to the incubations. The final concentrations of microsomes and NADPH were 0.5 mg/mL and 1 mM, respectively. b) Without NADPH: 10 μL of 20 mg/mL liver microsomes and 40 μL of ultra-pure H2O were added to the incubations. The final concentration of microsomes was 0.5 mg/mL. c) Heat-inactivated microsomes without NADPH: 10 μL of 20 mg/mL heat-inactivated liver microsomes and 40 μL of ultra-pure H2O were added to the incubations. The final concentration of microsomes was 0.5 mg/mL.
(§3) 3. The reaction was started with the addition of 4 μL of 200 μM test compound solution or control compound solution at the final concentration of 2 μM and carried out at 37° C.
(§4) 4. Aliquots of 50 μL were taken from the reaction solution at 0, 15, 30, 45 and 60 min. The reaction was stopped by the addition of 4 volumes of cold acetonitrile with IS (100 nM alprazolam, 200 nM labetalol, 200 nM caffeine and 2 μM ketoprofen). Samples were centrifuged at 3, 220 g for 40 minutes.
(§5) Peak areas were determined from extracted ion chromatograms. The slope value, k, was determined by linear regression of the natural logarithm of the remaining percentage of the parent drug vs. incubation time curve.
(§6) The in vitro half-life (in vitro t1/2) was determined from the slope value:
(§7) Conversion of the in vitro t1/2 (min) into the in vitro intrinsic clearance (in vitro CLint, in μL/min/mg protein) was done using the following equation (mean of duplicate determinations):
(§8) in vitro CLint=(0.693 * volume of incubation(μl))/(in vitro t1/2 * amount of proteins(mg))
(In general: Liver microsomes are a subcellular fraction often used to study metabolism.)

Data set [4] is described as follows: Assay of intrinsic clearance in liver microsomes (mouse). Conditions: Mouse liver microsomes 0.5 mg/mL, 2 μM compound, 37° C.; for microsomal CLint at 2 μM: read-out: in vitro CLint (μL/min/mg protein); for half-life at 2 μM: read-out: in vitro t1/2. Type of data set: in vitro ADME. As for the experimental part: as §1, §2, §3, §4, §5, §6, §7, §8

Data set [5] relates to MDA-MB-231 cells (breast cancer cells). Put plainly: Transwell cell migration assay. Conditions: MDA-MB-231, 24 h; for relative migration (%) of cells: FIG. 61; for migrated cells: FIGS. 62-67. Type of data set: cell-based. On the procedure: MDA-MB-231 cells (breast cancer cells) were starved in 0.5% serum-DMEM for 8 hours. For the migration assay, a total of 5×10^4cells were suspended in 500 μL of serum-free DMEM medium and seeded into the upper chamber of a […] pore size insert. Then, 750 μL of DMEM (containing 10% FBS) with or without the compound of the present application was added to the lower compartment. After incubation at 37° C. for 24 h, migrated cells were washed with PBS, fixed in 4% PFA and stained for 30 min in crystal violet solution (0.1% crystal violet). […] Each insert was photographed in 3 random fields at a magnification of 40×.

wild type CK1δ, sequence (P48730 whole entry): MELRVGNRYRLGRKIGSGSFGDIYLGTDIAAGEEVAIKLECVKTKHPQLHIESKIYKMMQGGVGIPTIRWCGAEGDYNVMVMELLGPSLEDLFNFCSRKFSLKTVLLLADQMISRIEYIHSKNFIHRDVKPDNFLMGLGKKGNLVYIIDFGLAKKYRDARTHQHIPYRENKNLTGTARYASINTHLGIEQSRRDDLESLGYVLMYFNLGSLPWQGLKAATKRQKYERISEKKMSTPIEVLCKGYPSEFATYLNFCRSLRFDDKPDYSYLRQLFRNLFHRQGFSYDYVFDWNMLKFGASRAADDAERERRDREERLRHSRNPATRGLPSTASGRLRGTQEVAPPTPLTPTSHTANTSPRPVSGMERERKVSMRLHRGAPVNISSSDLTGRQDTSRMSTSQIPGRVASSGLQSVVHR

For the molecule `CC(C)NCC(O)COc1cccc2ccccc12` (stereo not shown) [Propranolol, reference compound], the efflux ratio at 2 h, 5 μM in data set [1] turned out to be 0.51.

Regarding `C[C@@H]1Cn2nc(-c3ccc(F)cc3)c(-c3ccncc3)c2CO1` [Compound 1-46, (R)-2-(4-fluorophenyl)-6-methyl-3-(pyridin-4-yl)-6,7-dihydro-4H-pyrazolo[5,1-c][1,4]oxazine], the IC50 in data set [2] is 273 nM. For the same molecule, the results for the microsomal CLint at 2 μM in data set [3] and in data set [4] were 60.1 µL/min/mg and 44.9 µL/min/mg, respectively. The half-life at 2 μM in data set [3] was 23.1 min; in data set [4] it was 30.9 min.

Consider `Fc1ccc(-c2nn[nH]c2-c2ccncc2)cc1` [Compound 3-7, 4-(4-(4-fluorophenyl)-1H-1,2,3-triazol-5-yl)pyridine], for which, in data set [2], the concentration for half-maximal inhibition (IC50) amounted to 7140 nM. In addition, in data set [5], the “relative migration (%) of cells” value is listed as “reduced” and the migrated cells result is recorded as “suppressed the migration”.

As to `CC(=O)N1CCn2nc(-c3ccc(F)cc3)c(-c3ccnc(N)c3)c2C1` [Compound 1-50, 1-(3-(2-aminopyridin-4-yl)-2-(4-fluorophenyl)-6,7-dihydropyrazolo[1,5-a]pyrazin-5(4H)-yl)ethan-1-one], in data set [2], the IC50 worked out at 355 nM. For the same molecule, in data set [1], the apparent permeability from apical to basolateral (Papp A→B) at 2 h, 5 μM came out at 8.5 ×10⁻⁶ cm/s; the apparent permeability from basolateral to apical (Papp B→A) at 2 h, 5 μM is 30.8 ×10⁻⁶ cm/s; the efflux ratio at 2 h, 5 μM amounted to 3.6.

Regarding `Nc1cc(-c2c(-c3ccc(F)cc3)nn3c2COCC3)ccn1` [Compound 1-49, 4-(2-(4-fluorophenyl)-6,7-dihydro-4H-pyrazolo[5,1-c][1,4]oxazin-3-yl)pyridin-2-amine], the IC50 in data set [2] was determined as 320 nM. Moreover, in data set [3], the microsomal CLint at 2 μM turned out to be 49.5 µL/min/mg and the half-life at 2 μM turned out to be 28 min. Also, in data set [4], the microsomal CLint at 2 μM was found to be 104 µL/min/mg and the half-life at 2 μM came out at 13.3 min.

Regarding `CN1CCn2nc(-c3ccc(F)cc3)c(-c3ccnc(N)c3)c2C1` [Compound 1-59, 4-(2-(4-fluorophenyl)-5-methyl-4,5,6,7-tetrahydropyrazolo[1,5-a]pyrazin-3-yl)pyridin-2-amine], the IC50 in data set [2] is 39.7 nM. Besides, in data set [1], the Papp A→B at 2 h, 5 μM was determined as 22.8 ×10⁻⁶ cm/s; the basolateral-to-apical permeability (Papp B→A) at 2 h, 5 μM came to 23.9 ×10⁻⁶ cm/s; the efflux ratio at 2 h, 5 μM was 1.05. In addition, in data set [3], the microsomal CLint at 2 μM amounted to 9.7 µL/min/mg and the half-life at 2 μM turned out to be 143 min. In data set [4], the microsomal CLint at 2 μM was 22.2 µL/min/mg and the half-life at 2 μM turned out to be 62.3 min.

On to `Cc1cn(-c2ccncc2)c(-c2ccc(F)cc2)c1C#N` [Compound 2-2, 2-(4-fluorophenyl)-4-methyl-1-(pyridin-4-yl)-1H-pyrrole-3-carbonitrile], for which the IC50 in data set [2] worked out at 212 nM. In addition, in data set [5], the “relative migration (%) of cells” value is given as “reduced” and the migrated cells result is given as “suppressed the migration”.

Turning to `Nc1cc(-c2c(-c3ccc(F)cc3)nn3c2CCC3)ccn1` [Compound 1-57, 4-(2-(4-fluorophenyl)-5,6-dihydro-4H-pyrrolo[1,2-b]pyrazol-3-yl)pyridin-2-amine], the IC50 in data set [2] was determined as 131 nM. In data set [1], the Papp A→B at 2 h, 5 μM was 19.2 ×10⁻⁶ cm/s; the Papp B→A at 2 h, 5 μM is 17.3 ×10⁻⁶ cm/s; the efflux ratio at 2 h, 5 μM came out at 0.9. Further, in data set [3], the microsomal CLint at 2 μM is 104 µL/min/mg and the half-life at 2 μM stood at 13.4 min. For the same molecule, in data set [4], the microsomal CLint at 2 μM is 285 µL/min/mg and the half-life at 2 μM stood at 4.86 min.

For the molecule `C[C@H]1O[C@@H](O[C@H]2[C@@H](O)C[C@H](O[C@H]3[C@@H](O)C[C@H](O[C@H]4CC[C@@]5(C)[C@H](CC[C@@H]6[C@@H]5C[C@@H](O)[C@]5(C)[C@@H](C7=CC(=O)OC7)CC[C@]65O)C4)O[C@@H]3C)O[C@@H]2C)C[C@H](O)[C@@H]1O` [Digoxin, reference compound], the efflux ratio at 2 h, 5 μM in data set [1] was 56.5.

In the case of `Cn1cc(-c2ccnc3[nH]ncc23)c(-c2ccc(F)cc2)c1C#N` [Compound 5-2, 3-(4-fluorophenyl)-1-methyl-4-(1H-pyrazolo[3,4-b]pyridin-4-yl)-1H-pyrrole-2-carbonitrile], the IC50 in data set [2] stood at 168 nM. In data set [3], the microsomal CLint at 2 μM was determined as 7.93 µL/min/mg and the half-life at 2 μM amounted to 175 min. In addition, in data set [4], the microsomal CLint at 2 μM worked out at 25.2 µL/min/mg and the half-life at 2 μM stood at 55 min.

For `Nc1cc(-c2c(-c3ccc(F)cc3)nn3c2OCC3)ccn1` [Compound 1-54, 4-(6-(4-fluorophenyl)-2,3-dihydropyrazolo[5,1-b]oxazol-7-yl)pyridin-2-amine], the IC50 in data set [2] was 800 nM.

Take `Cn1cc(-c2ccncc2)c(-c2ccc(F)cc2Cl)n1` [Compound 3-18, 4-(3-(2-chloro-4-fluorophenyl)-1-methyl-1H-pyrazol-4-yl)pyridine]: the IC50 in data set [2] amounted to 4390 nM.

Take `Fc1ccc(-n2nncc2-c2ccncc2)cc1` [Compound 4-1, 4-(1-(4-fluorophenyl)-1H-1,2,3-triazol-5-yl)pyridine]: the IC50 in data set [2] was 215 nM.

What is called efflux ratio is the permeability from basolateral to apical divided by that in the opposite direction, in the common usage. As a reminder, the IC50 is the concentration that inhibits the measured activity by half. The Papp A→B is the apparent permeability from the apical to the basolateral side of a cell layer. As a reminder, the Papp B→A is the apparent permeability from the basolateral to the apical side of a cell layer.
